Data reported in ChEMBL document CHEMBL5728472, “Triazolopyrimidine, triazolopyridine compounds, and the composition thereof for treating PRC2-mediated diseases” (2021).

Biological target: Histone-binding protein RBBP4/Histone-lysine N-methyltransferase EZH2/Polycomb protein EED/Polycomb protein SUZ12 (Homo sapiens, UniProt O75530+Q09028+Q15022+Q15910)
Assay: TR-FRET Assay: The TR-FRET method was used to measure the PRC2 enzyme activity. First, the enzyme was mixed with compounds at different concentrations and incubated for 30 min at room temperature. The biotin-labeled histone H3 peptide substrate and the cofactor S-adenosylmethionine (SAM) were added to initiate the enzymatic reaction. After reaction was performed at room temperature for 4 hour, Acceptor and Donor were added and incubated for half an hour. The multifunctional microplate reader EnVision (Perkin Elmer Inc.) was used to detect the fluorescence signal.
Assay type: protein-complex assay

Sequence of Histone-binding protein RBBP4/Histone-lysine N-methyltransferase EZH2/Polycomb protein EED/Polycomb protein SUZ12 (Q15910 whole entry): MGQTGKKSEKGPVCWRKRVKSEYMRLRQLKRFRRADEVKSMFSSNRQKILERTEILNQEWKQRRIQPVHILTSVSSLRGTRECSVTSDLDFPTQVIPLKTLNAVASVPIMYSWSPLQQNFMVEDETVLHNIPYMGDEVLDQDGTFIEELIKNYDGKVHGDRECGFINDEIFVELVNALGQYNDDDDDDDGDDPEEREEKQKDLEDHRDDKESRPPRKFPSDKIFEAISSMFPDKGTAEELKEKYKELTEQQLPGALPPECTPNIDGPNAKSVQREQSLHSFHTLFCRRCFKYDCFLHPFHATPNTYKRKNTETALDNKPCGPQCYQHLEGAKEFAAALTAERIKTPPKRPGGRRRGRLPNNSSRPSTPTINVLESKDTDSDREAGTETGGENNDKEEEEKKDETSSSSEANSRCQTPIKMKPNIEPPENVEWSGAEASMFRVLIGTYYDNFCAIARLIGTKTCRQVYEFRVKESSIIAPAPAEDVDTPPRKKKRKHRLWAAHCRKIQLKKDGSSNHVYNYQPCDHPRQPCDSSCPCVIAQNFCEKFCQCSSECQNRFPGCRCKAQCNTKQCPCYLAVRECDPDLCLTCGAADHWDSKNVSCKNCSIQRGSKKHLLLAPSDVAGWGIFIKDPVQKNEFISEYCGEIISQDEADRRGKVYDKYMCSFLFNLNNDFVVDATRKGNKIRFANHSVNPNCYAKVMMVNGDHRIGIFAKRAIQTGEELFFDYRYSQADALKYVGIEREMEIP
Sequence of Histone-binding protein RBBP4/Histone-lysine N-methyltransferase EZH2/Polycomb protein EED/Polycomb protein SUZ12 (O75530 whole entry): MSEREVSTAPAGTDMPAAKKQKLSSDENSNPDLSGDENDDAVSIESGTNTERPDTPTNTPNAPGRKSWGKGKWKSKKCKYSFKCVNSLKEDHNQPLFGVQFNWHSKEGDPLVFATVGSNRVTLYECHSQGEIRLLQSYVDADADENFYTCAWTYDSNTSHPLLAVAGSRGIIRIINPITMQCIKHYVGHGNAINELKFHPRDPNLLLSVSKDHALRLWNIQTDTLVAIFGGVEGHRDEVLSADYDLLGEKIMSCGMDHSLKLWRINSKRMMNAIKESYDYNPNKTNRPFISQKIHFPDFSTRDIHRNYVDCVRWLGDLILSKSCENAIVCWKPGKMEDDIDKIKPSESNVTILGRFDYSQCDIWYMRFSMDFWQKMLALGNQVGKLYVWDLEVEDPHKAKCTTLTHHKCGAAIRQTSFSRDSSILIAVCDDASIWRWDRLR
Sequence of Histone-binding protein RBBP4/Histone-lysine N-methyltransferase EZH2/Polycomb protein EED/Polycomb protein SUZ12 (Q15022 whole entry): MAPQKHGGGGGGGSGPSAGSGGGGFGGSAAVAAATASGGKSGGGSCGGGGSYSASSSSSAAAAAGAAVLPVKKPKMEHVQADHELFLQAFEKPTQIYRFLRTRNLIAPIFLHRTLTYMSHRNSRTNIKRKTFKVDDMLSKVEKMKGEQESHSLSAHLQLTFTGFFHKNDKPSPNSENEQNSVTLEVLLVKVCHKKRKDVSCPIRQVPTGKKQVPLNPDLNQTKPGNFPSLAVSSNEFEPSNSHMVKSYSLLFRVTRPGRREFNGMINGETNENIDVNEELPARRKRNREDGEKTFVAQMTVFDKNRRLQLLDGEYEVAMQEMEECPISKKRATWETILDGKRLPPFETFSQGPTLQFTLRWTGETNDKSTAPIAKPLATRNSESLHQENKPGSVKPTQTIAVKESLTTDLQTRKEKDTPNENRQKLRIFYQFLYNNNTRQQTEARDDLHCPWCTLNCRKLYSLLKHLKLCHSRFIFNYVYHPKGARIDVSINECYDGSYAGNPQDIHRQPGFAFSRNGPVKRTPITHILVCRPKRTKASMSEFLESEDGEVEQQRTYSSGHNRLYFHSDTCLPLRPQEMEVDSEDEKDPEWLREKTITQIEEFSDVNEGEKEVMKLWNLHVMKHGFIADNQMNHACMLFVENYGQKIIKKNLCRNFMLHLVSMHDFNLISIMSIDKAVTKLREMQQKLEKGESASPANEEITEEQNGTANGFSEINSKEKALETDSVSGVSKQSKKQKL
Sequence of Histone-binding protein RBBP4/Histone-lysine N-methyltransferase EZH2/Polycomb protein EED/Polycomb protein SUZ12 (Q09028 whole entry): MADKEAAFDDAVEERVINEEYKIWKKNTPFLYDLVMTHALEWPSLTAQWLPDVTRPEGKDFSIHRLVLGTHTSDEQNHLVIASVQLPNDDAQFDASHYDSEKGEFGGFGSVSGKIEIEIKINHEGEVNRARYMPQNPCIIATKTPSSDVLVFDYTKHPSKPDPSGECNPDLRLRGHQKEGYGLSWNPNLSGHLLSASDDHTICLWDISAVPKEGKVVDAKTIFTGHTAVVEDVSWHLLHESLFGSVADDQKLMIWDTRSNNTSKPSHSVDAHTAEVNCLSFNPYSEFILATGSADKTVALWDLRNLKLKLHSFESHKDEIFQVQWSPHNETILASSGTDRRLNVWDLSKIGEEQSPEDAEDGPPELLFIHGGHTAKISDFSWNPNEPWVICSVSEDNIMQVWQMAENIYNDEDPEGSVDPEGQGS

| SMILES | IC50 |
| --- | --- |
| COC(=O)N1CC=C(c2cnc(NCc3c(F)ccc4c3CCO4)n3cnnc23)CC1 | 2.5 nM |
| Fc1ccc2c(c1CNc1ncc(C3=CCNCC3)c3nncn13)CCO2 | 218 nM |
